The results in this text go back to patent US12247227B2, “Methods relating to intestinal organ-on-a-chip” (PRESIDENT AND FELLOWS OF HARVARD COLLEGE, priority 2016, dated 2025).

The subject of data set [1] is enteroid fragments (primary intestinal epithelial cells). The data set is described as follows: Epithelial cell recovery and on-chip seeding of enteroid fragments generated with or without ROCK inhibitor. The format is cell-based, human. To be noted: ROCK inhibitor present during fragment isolation and seeding, images 24 h post seeding (FIG. 15). As to the method: Representative images showing device seeded with enteroid fragments generated in the absence (−ROCK inhibitor) or presence (+ROCK inhibitor) were acquired 24 h post seeding. Equal cell seeding density and time was used for both of the conditions tested.
Prior to the establishment of primary cell culture in organ-on-chip microfluidic device, the hydrophobic PDMS surface is activated by oxygen plasma treatment and aminized with (3-aminopropyl)[…] silane (APTMS, SIGMA 281778). This surface functionalization allows for an improved cell attachment and facilitates long-term culture of intestinal stem cells and their progeny. Next ECM coating solution composed of 1% Matrigel (BD Corning, 356231) and 200 ug/ml Collagen I (BD Corning 3.36 mg/mL; 354226) is introduced in both the upper and the lower microfluidic channel and device is placed in a humidified 37° C. incubator for the minimum of 2 hours. Then human intestinal microvascular endothelial cells, e.g., purchased from ScienCell (Catalog #2900), are seeded on the bottom side of the porous stretchable PDMS membrane that separates two parallel microchannels of the organ-on-chip device. […]

For data set [2], the system named is small intestine-on-chip (primary human intestinal epithelium with or without HIMEC endothelium). The source says: As used herein, “differentially permeable”, e.g., in reference to an intestinal barrier, refers to the intestinal barrier displaying a resistance to the passage of certain molecules as compared to monolayers of, e.g., endothelial cells or undifferentiated intestinal epithelial cells. […] Such assays are described in the Examples herein in detail. Briefly, the apical side of the intestinal barrier is contacted with one or more tracer molecules and the concentration of the tracer later found on the basal side of the intestinal barrier.
• PROCEDURE. […]
Intestinal functional assessment and cytokine measurements. […] The concentration of dye that diffused through the membrane into endothelial channel was measured in the effluent, and apparent paracellular permeability (Papp) was calculated using the following formula:
[formula] where Vrec is volume receiver (endothelial compartment), Crec concentration receiver, A the seeded area and Cdon concentration donor (epithelial compartment). Cytokines released in the medium were quantified using U-PLEX Biomarker Assays for human Fractalkine, GM-CSF, IFN-γ, IL-1α, IL-1β, IL-6, IL-8, and IL-10 (Mesoscale Discovery).

Consider `C[C@@H](N)[C@H]1CC[C@H](C(=O)Nc2ccncc2)CC1` [ROCK inhibitor, Y-27632], for which, in data set [1], the “epithelial cell recovery and on-chip seeding” value is “Improved epithelial cells recovery and on-chip seeding”.
As to Lucifer Yellow, in data set [2], the Optimal Papp (apparent permeability) for small intestine-on-chip was approximately 1e-06 cm/s and the Papp is on record as 1-2×10^−6.
